{
  "source": "patent US20110287547A1",
  "about": "“NUCLEIC ACID DELIVERY COMPOSITIONS AND METHODS” (priority 2008, published 2011)",
  "key": {"A549 cells [1]": {"test_system": "A549 cells", "experiment": "In vitro cell transfection (pGL3 luciferase gene expression), Example 1 method", "type": "cell-based, human", "conditions": "1 day after transfection, 75, 150, 300 mM CaCl2, varying N/P ratios", "description": "Particles of nano-sized TAT-Ca complexes were synthesized by rapidly adding and stirring 10 μL of either (0.1 μg/μL) pDNA or (30-50 nM) siRNA to 15 μL (1 μg/μL) of the TAT solution. To this solution, 15 μL of CaCl2 of known molarity (e.g. 0.3 M) was added and mixed by vigorous pipetting followed by 20-30 minutes incubation at room temperature or at 4° C. prior to use.\nPreparation of PEI/pDNA Complexes. Polyethylenimine-DNA Complexes were prepared by adding 10 μl (0.1 μg/μL) of pDNA solution to 15 μL (N/P ratio of 5 or 10) polyethylenimine (PEI) solution drop-wise while stirring. Complexes were incubated at room temperature for 20-30 minutes before dilution 1.7 times (15 μL) with the appropriate buffer (e.g. nuclease-free water or CaCl2). Complexes were freshly prepared before each individual experiment.\nIn Vitro Cell Transfection Studies. A549 cells were trypsinized, counted and diluted to a concentration of approximately 80,000 cells/mL. Then 0.1 mL of that dilution was added to each well of a 96-well plate and the cells were incubated in a humidified atmosphere of 5% CO2 incubator at 37° C. for 24 hours. Immediately before transfection, the cells were washed once with PBS and 100 μl sample (20% of complex to 80% of serum free cell culture medium) was added to each well. Cells were incubated with the complexes for 5 hours. The transfection agent was then removed by aspiration and 100 μL of fresh serum medium was added followed by further incubation. The Luciferase Assay System from Promega was used to determine gene expression following the manufacturer's recommended protocol. The light units were normalized against protein concentration in the cells extracts, which were measured using the Coomassie Plus™ Protein Assay (Thermo Scientific). The transfection results were expressed as Relative Light Units (RLU) per mg of cellular protein."}, "A549 cells [2]": {"test_system": "A549 cells", "experiment": "Cytotoxicity Assay (MTS Assay), Example 1 and CPPs", "type": "cell-based, human", "conditions": "A549 cells, MTS", "description": "(§1) Cell Culture. Culturing of human epithelial lung cell line A549 was performed according to the protocol provided by the American Type Culture Collection. A549 was grown in F-12K supplemented with 10% v/v FBS and 1% v/v Penicillin/streptomycin at 37° C. in a humidified air atmosphere containing 5% CO2.\n(§2) Cytotoxicity Assay (MTS Assay). […] A549 cells were grown as described in the transfection experiments. Cells were treated with the samples for approximately 24 hours. […] The cells were incubated for 3 hours at 37° C. in the 5% CO2 incubator. The absorbance of each well was then measured at 490 nm using a microtiter plate reader (SpectraMax, M25, Molecular Devices Corp., CA) to determine cell viability."}, "A549-luc-C8 cells": {"test_system": "A549-luc-C8 cells", "experiment": "Assessment of cytotoxicity (MTS Assay), Example 4", "type": "cell-based, human", "conditions": "24 hours, up to 5 mg/mL", "description": "(§3) Cell culture. Culturing of human epithelial lung cell line A549-luc-C8, stably expressing luciferase, was performed according to the protocol provided by Caliper LifeSciences. A549-luc-C8 cells were grown in RPMI-1640 supplemented with 10% v/v heat inactivated FBS and 1% v/v Penicillin/streptomycin at 37° C. in a humidified air atmosphere containing 5% CO2.\nas §2, with “Assessment of cytotoxicity” for “Cytotoxicity Assay”, “A549-luc-C8” for “A549”, “TAT, dTAT or PEI” for “samples”"}, "A549 cells [3]": {"test_system": "A549 cells", "experiment": "Cytotoxicity assay (MTS), Example 2", "conditions": "46.9 mM CaCl2 only or in the complex", "method": "(§4) Cytoxicity Assay. Cytotoxicity of the complexes was determined by the CellTiter 96® Aqueous Cell Proliferation Assay kit (MTS assay) from Promega. A549 cells were plated on 96-well plates with approximately 8,000 cells/well and incubated in a humid 5% CO2 incubator at 37° C. After 18-24 hours incubation, the medium was removed and the cells were washed with 100 μl serum free medium. Cells were treated with the samples for 12-24 hours. The serum free medium were then removed and replaced with a mixture of 100 μl fresh culture medium and 20 μl MTS reagent solution. The cells were incubated for 1-4 hours at 37° C. in 5% CO2 incubator. Cell viability was assessed by measuring the absorbance at 490 nm by plate reader (SpectraMax M5) and expressed as the ratio of the A490 of cells treated with inhibitors over the control samples."}, "[4]": {"experiment": "Cytotoxicity Assay (MTS Assay), Example 1 and CPPs", "type": "cell-based, human", "conditions": "human", "description": "as §1, §2"}, "Balb/C mice": {"test_system": "Balb/C mice", "conditions": "200 μL tail vein, Balb/C mouse", "description": "Assessment of toxicity in vivo. Stock solutions of 0.3 M CaCl2, 10% Glucose, and 174 mg/ml dTAT were prepared. Non-silencing control siRNA (Dharmacon; Sense: […]tt; SEQ ID NO 16, Antisense: […]tt; SEQ ID NO 17) was dissolved in nuclease-free water (61.5 nM). The dTAT/siRNA complexes were prepared in 1.5 ml microcentrifuge tubes by mixing stock solutions (at concentrations indicated above). Formulation 1 used 15 μL of dTAT, 10 μL siRNA, 25 μL Glucose, and 5 μl CaCl2. Each ingredient was added to the previous component(s) and mixed by pipetting between each addition. Four of these formulas were individually prepared and kept at 4° C. for 20 minutes, then kept at room temperature for 5 minutes prior to injection. Remaining formulations (2-10) were prepared by a serial 1:2 dilution of stock siRNA solution and stock dTAT solution following the same experimental protocol as described above. The dTAT/siRNA complexes (volume=260 μl) were prepared for each individual animal and each 0.2 mL injection volume contained approximately the following amounts of dTAT peptide (mg/ml): 40, 20, 10, 5, 2.5, 1.25, 0.64, 0.32, 0.16, 0. Each formulation was administered via 200 μL injection into the tail vein of 12 week old male Balb/C mice (10 animals total).\nIn vivo dose escalating toxicity study. […] A dose escalating study was conducted in an effort to establish a lethal dose (LD50) for the dTAT peptide. For these studies, only a minimal amount of siRNA was included so that animal responses would be indicative of the toxicity of dTAT. Animals were administered the formulations via tail vein injection (200 μL) at doses up to 1,000 mg/kg of dTAT (Table 5)."}, "[5]": {"experiment": "Assessment of cytotoxicity (MTS Assay), Example 4", "type": "cell-based, human", "conditions": "human, A549-luc-C8 cells, up to 5 mg/mL", "description": "as §3\nas §2, with “Assessment of cytotoxicity” for “Cytotoxicity Assay”, “A549-luc-C8” for “A549”, “TAT, dTAT or PEI” for “samples”"}, "A549 cells [6]": {"test_system": "A549 cells", "method": "as §4"}},
  "note": "Read-outs that look alike come from different tables or passages of the source. Where a SMILES comes first, the peptide text is derived from it.",
  "data": [
    {"molecule": "H-RKKRRQRRRHRRKKR-NH2 [TAT5]", "values": [
      {"measurement": "added CaCl2 concentration at which complexes showed a higher level of gene expression", "setting": "A549 cells [1]", "result": 300, "unit": "mM"}
    ]},
    {"molecule": "H-RRKRRQHRRR-NH2 [TAT4]", "values": [
      {"measurement": "added CaCl2 concentration at which complexes showed a higher level of gene expression", "setting": "A549 cells [1]", "result": 150, "unit": "mM"}
    ]},
    {"molecule": "N=C(N)NCCC[C@H](NC(=O)[C@H](CCCNC(=N)N)NC(=O)[C@H](CCCNC(=N)N)NC(=O)[C@H](CCC(N)=O)NC(=O)[C@H](CCCNC(=N)N)NC(=O)[C@H](CCCNC(=N)N)NC(=O)[C@H](CCCCN)NC(=O)[C@H](CCCCN)NC(=O)[C@@H](N)CCCNC(=N)N)C(N)=O", "note": "[TAT]", "values": [
      {"measurement": "cytotoxic effects", "setting": "A549 cells [2]", "result": "no evidence of cytotoxic effects"},
      {"measurement": "cytotoxicity", "setting": "A549-luc-C8 cells", "result": "almost no evidence of cytotoxicity"}
    ]},
    {"molecule": "[Ca+2].[Cl-].[Cl-]", "note": "[CaCl2, Calcium chloride]", "values": [
      {"measurement": "cytotoxicity", "setting": "A549 cells [3]", "result": "did not show cytotoxicity"}
    ]},
    {"molecule": "H-RKKRRHRRR-NH2 [TAT2]", "values": [
      {"measurement": "added CaCl2 concentration at which complexes showed a higher level of gene expression", "setting": "A549 cells [1]", "result": 150, "unit": "mM"}
    ]},
    {"molecule": "CSCC[C@H](NC(=O)[C@H](CCCCN)NC(=O)[C@H](Cc1c[nH]c2ccccc12)NC(=O)[C@H](CCCCN)NC(=O)[C@@H](N)CCCCN)C(=O)N[C@@H](CCCNC(=N)N)C(=O)N[C@@H](CCCNC(=N)N)C(=O)N[C@@H](CC(N)=O)C(=O)N[C@@H](CCC(N)=O)C(=O)N[C@@H](Cc1ccccc1)C(=O)N[C@@H](Cc1c[nH]c2ccccc12)C(=O)N[C@H](C(=O)N[C@@H](CCCCN)C(=O)N[C@H](C(=O)N[C@@H](CCC(N)=O)C(=O)N[C@@H](CCCNC(=N)N)C(=O)NCC(=O)O)C(C)C)C(C)C", "note": "[Alp] (H-KKWKMRRNQFWVKVQRG-OH)", "values": [
      {"measurement": "IC50 at 24 h", "setting": "[4]", "result": "~2140", "unit": "µg/mL"}
    ]},
    {"molecule": "N=C(N)NCCC[C@H](NC(=O)[C@H](CCCCN)NC(=O)[C@H](CCCCN)NC(=O)[C@H](CCCNC(=N)N)NC(=O)[C@H](CCCNC(=N)N)NC(=O)[C@H](Cc1c[nH]cn1)NC(=O)[C@H](CCCNC(=N)N)NC(=O)[C@H](CCCNC(=N)N)NC(=O)[C@H](CCCNC(=N)N)NC(=O)[C@H](CCC(N)=O)NC(=O)[C@H](CCCNC(=N)N)NC(=O)[C@H](CCCNC(=N)N)NC(=O)[C@H](CCCCN)NC(=O)[C@H](CCCCN)NC(=O)[C@@H](N)CCCNC(=N)N)C(=O)O", "note": "[dTAT] (H-RKKRRQRRRHRRKKR-OH)", "values": [
      {"measurement": "Toxicity/Behavioral Effects", "setting": "Balb/C mice; dTAT 0.16 mg/mL, total dose 3.90 mg/Kg, siRNA 0.03 nM", "result": "Normal"},
      {"measurement": "Toxicity/Behavioral Effects", "setting": "Balb/C mice; dTAT 0.32 mg/mL, total dose 7.81 mg/Kg, siRNA 0.07 nM", "result": "Normal"},
      {"measurement": "Toxicity/Behavioral Effects", "setting": "Balb/C mice; dTAT 0.64 mg/mL, total dose 15.63 mg/Kg, siRNA 0.14 nM", "result": "Normal"},
      {"measurement": "Toxicity/Behavioral Effects", "setting": "Balb/C mice; dTAT 1.25 mg/mL, total dose 31.25 mg/Kg, siRNA 0.29 nM", "result": "Normal"},
      {"measurement": "Toxicity/Behavioral Effects", "setting": "Balb/C mice; dTAT 2.5 mg/mL, total dose 62.5 mg/Kg, siRNA 0.59 nM", "result": "Normal"},
      {"measurement": "Toxicity/Behavioral Effects", "setting": "Balb/C mice; dTAT 5 mg/mL, total dose 125 mg/Kg, siRNA 1.18 nM", "result": "Normal"},
      {"measurement": "Toxicity/Behavioral Effects", "setting": "Balb/C mice; dTAT 10 mg/mL, total dose 250 mg/Kg, siRNA 2.36 nM", "result": "Normal"},
      {"measurement": "Toxicity/Behavioral Effects", "setting": "Balb/C mice; dTAT 20 mg/mL, total dose 500 mg/Kg, siRNA 4.73 nM", "result": "Normal"},
      {"measurement": "IC50 at 24 h", "setting": "[5]", "result": "~4000", "unit": "µg/mL"}
    ]},
    {"molecule": "H-RKKRRQHRRR-NH2 [TAT3]", "values": [
      {"measurement": "added CaCl2 concentration at which complexes showed a higher level of gene expression", "setting": "A549 cells [1]", "result": 150, "unit": "mM"}
    ]},
    {"molecule": "protamine", "values": [
      {"measurement": "IC50 (cytotoxicity)", "setting": "A549 cells [6]", "result": 890, "unit": "µg/mL"}
    ]}
  ]
}
